Assay results reported in patent US11858905B1, “Cathepsin L inhibitors” (priority 2023, dated 2024).
pIC50: −log10 of the molar value. Read-outs that look alike come from different tables or passages of the source.

How the values were obtained:
human CatL = human CatL (Homo sapiens (Human), UniProt P07711); assay: Human Cathepsin L (CatL) enzymatic assay; assay type: biochemical
Experimental: Human Cathepsin L (CatL) Enzymatic Assay
60 μL of the compounds were added to 384-well dilution plate. The compound solution was diluted for 1:3 in succession in DMSO for each column for 10 pts. 0.05 μL diluted compound solution was added in each row to 384 assay plates (Corning 4514) using Echo (LABCYTE 655), each column containing 2 replicates. 5 μL working solution of human CatL enzyme (Abcam #ab81780) was added to 384-well assay plate, centrifuge 1000 rpm for 1 min. The mixture was incubated at […] for 15 min, then add 5 μL working solution of CatL substrate (Genscript #C7360HB140_5) to initiate the reaction (CatL: 0.05 nM, Substrate: 500 nM). Incubate at […] for 30 min. Reading Ex370 nm and Em460 nm fluorescence signals with BMG CLARIO Star Plusaucu. Percent inhibition for each compound was calculated and IC50 (half maximal inhibitory concentration) was fitted from non-linear regression by XLfit 5.5.0.

SARS-CoV-2 PsVs = assay: microbe, parasite or virus in culture; assay type: cell-based; conditions: for activity at 0.5 µM / activity at 5 µM: Severe acute respiratory syndrome coronavirus 2, Vero C1008, 24 h; for activity at 0.5 µM: read-out: % Infection rate at 500 nM; for activity at 5 µM: read-out: % Infection rate at 5 uM
[1] = CatL 0.05 nM, substrate 500 nM, pH 5.5, read-out: Enzymatic inhibition IC50
[2] = summary of Table 2, read-out: IC50 for inhibiting CatL

Sequence of human CatL (P07711 whole entry, looked up): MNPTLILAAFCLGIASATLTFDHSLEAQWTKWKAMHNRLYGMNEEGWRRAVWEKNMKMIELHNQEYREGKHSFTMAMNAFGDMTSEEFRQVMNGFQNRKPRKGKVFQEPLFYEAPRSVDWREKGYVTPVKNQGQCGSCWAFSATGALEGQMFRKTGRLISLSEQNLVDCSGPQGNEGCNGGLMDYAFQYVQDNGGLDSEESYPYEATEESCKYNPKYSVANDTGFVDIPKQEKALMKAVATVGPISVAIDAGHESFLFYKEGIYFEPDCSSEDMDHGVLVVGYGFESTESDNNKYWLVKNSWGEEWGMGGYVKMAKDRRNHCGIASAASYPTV

CN1CCN(c2ccc3nc(C[C@H](NC(=O)c4cc(C5CC5)nn4C4CC4)C(=O)NCC#N)oc3c2)CC1 [Compound 25, (S)—N-(1-((cyanomethyl)amino)-3-(6-(4-methylpiperazin-1-yl)benzo[d]oxazol-2-yl)-1-oxopropan-2-yl)-1,3-dicyclopropyl-1 H-pyrazole-5-carboxamide] was tested, and the pIC50 (human CatL; [1]) was 7.44, the activity at 0.5 µM (SARS-CoV-2 PsVs) was 54% and the activity at 5 µM (SARS-CoV-2 PsVs) was 15%.
CN1CCN(c2ccc3nc(C[C@H](NC(=O)c4cc(C(C)(C)C)nn4C4CC4)C(=O)NC4(C#N)CC4)oc3c2)CC1 [Compound 26, (S)-3-(tert-butyl)-N-(1-((1-cyanocyclopropyl)amino)-3-(6-(4-methylpiperazin-1-yl)benzo[d]oxazol-2-yl)-1-oxopropan-2-yl)-1-cyclopropyl-1 H-pyrazole-5-carboxamide] was tested, and the pIC50 (human CatL; [1]) was 8.85, the pIC50 (human CatL; [2]) was greater than 8.00 and the activity at 0.5 µM (SARS-CoV-2 PsVs) was 25%. It also gave an activity at 5 µM (SARS-CoV-2 PsVs) of 2.2%.
For CN1CC=C(c2ccc3nc(C[C@H](NC(=O)c4cccc(Cl)c4)C(=O)NC4(C#N)CC4)oc3c2)CC1 [Compound 27, (S)-3-chloro-N-(1-((1-cyanocyclopropyl)amino)-3-(6-(1-methyl-1,2,3,6-tetrahydropyridin-4-yl)benzo[d]oxazol-2-yl)-1-oxopropan-2-yl)benzamide], the pIC50 (human CatL; [1]) was 8.07, the pIC50 (human CatL; [2]) was greater than 8.00 and the activity at 0.5 µM (SARS-CoV-2 PsVs) was 40%. It also gave an activity at 5 µM (SARS-CoV-2 PsVs) of 13%.
For N#CC1(NC(=O)[C@H](Cc2nc3ccc(C4=CCN(CC(F)F)CC4)cc3o2)NC(=O)c2cccc(Cl)c2)CC1 [Compound 28, (S)-3-chloro-N-(1-((1-cyanocyclopropyl)amino)-3-(6-(1-(2,2-difluoroethyl)-1,2,3,6-tetrahydropyridin-4-yl)benzo[d]oxazol-2-yl)-1-oxopropan-2-yl)benzamide], the pIC50 (human CatL; [1]) was 7.91, the activity at 0.5 µM (SARS-CoV-2 PsVs) was 70% and the activity at 5 µM (SARS-CoV-2 PsVs) was 38%.
With CC(C)(C)c1cc(C(=O)N[C@@H](Cc2nc3ccc(C4=CCN(CC(F)F)CC4)cc3o2)C(=O)NC2(C#N)CC2)n(C2CC2)n1 [Compound 29, (S)-3-(tert-butyl)-N-(1-((1-cyanocyclopropyl)amino)-3-(6-(1-(2,2-difluoroethyl)-1,2,3,6-tetrahydropyridin-4-yl)benzo[d]oxazol-2-yl)-1-oxopropan-2-yl)-1-cyclopropyl-1 H-pyrazole-5-carboxamide] the pIC50 (human CatL; [1]) was 8.89, the pIC50 (human CatL; [2]) was greater than 8.00 and the “protection of cells from pseudovirus infection at 500 nM” value (SARS-CoV-2 PsVs; 500 nM) was “nearly full protection”. For the same compound, the activity at 0.5 µM (SARS-CoV-2 PsVs) was 7.3% and the activity at 5 µM (SARS-CoV-2 PsVs) was 8.8%.
For CN1CCN(c2ccc3nc(C[C@H](NC(=O)c4cccc(Cl)c4)C(=O)NC4(C#N)CC4)oc3c2)C(=O)C1 [Compound 30, (S)-3-chloro-N-(1-((1-cyanocyclopropyl)amino)-3-(6-(4-methyl-2-oxopiperazin-1-yl)benzo[d]oxazol-2-yl)-1-oxopropan-2-yl)benzamide], the pIC50 (human CatL; [1]) was 6.91, the activity at 0.5 µM (SARS-CoV-2 PsVs) was 99% and the activity at 5 µM (SARS-CoV-2 PsVs) was 101%.
Compound N#CC1(NC(=O)[C@H](Cc2nc3ccccc3s2)NC(=O)c2cccc(Cl)c2)CC1 [Compound 31, (S)—N-(3-(benzo[d]thiazol-2-yl)-1-((1-cyanocyclopropyl)amino)-1-oxopropan-2-yl)-3-chlorobenzamide] has a pIC50 (human CatL; [1]) of 7.93, a pIC50 (human CatL; [2]) greater than 7.30 and an activity at 0.5 µM (SARS-CoV-2 PsVs) of 67%. It also gave an activity at 5 µM (SARS-CoV-2 PsVs) of 10%.
Work on Cn1c(C[C@H](NC(=O)c2cccc(Cl)c2)C(=O)NC2(C#N)CC2)nc2ccccc21 [Compound 32, (S)-3-chloro-N-(1-((1-cyanocyclopropyl)amino)-3-(1-methyl-1 H-benzo[d]imidazol-2-yl)-1-oxopropan-2-yl)benzamide] yielded a pIC50 (human CatL; [1]) of less than 6.00, an activity at 0.5 µM (SARS-CoV-2 PsVs) of 101% and an activity at 5 µM (SARS-CoV-2 PsVs) of 95%.
With CC(C)(C)c1cc(C(=O)N[C@@H](Cc2nc3ccc(Br)cc3o2)C(=O)NC2(C#N)CC2)n(C2CC2)n1 [Compound 33, (S)—N-(3-(6-bromobenzo[d]oxazol-2-yl)-1-((1-cyanocyclopropyl)amino)-1-oxopropan-2-yl)-3-(tert-butyl)-1-cyclopropyl-1H-pyrazole-5-carboxamide] the pIC50 (human CatL; [1]) was 8.54, the activity at 0.5 µM (SARS-CoV-2 PsVs) was 39% and the activity at 5 µM (SARS-CoV-2 PsVs) was 5.9%.
Compound CC(C)(C)c1cc(C(=O)N[C@@H](Cc2nc3ccc(-c4ccc(N)nc4)cc3o2)C(=O)NC2(C#N)CC2)n(C2CC2)n1 [Compound 34, (S)—N-(3-(6-(6-aminopyridin-3-yl)benzo[d]oxazol-2-yl)-1-((1-cyanocyclopropyl)amino)-1-oxopropan-2-yl)-3-(tert-butyl)-1-cyclopropyl-1H-pyrazole-5-carboxamide] has a pIC50 (human CatL; [1]) of 9.22, an activity at 0.5 µM (SARS-CoV-2 PsVs) of 41% and an activity at 5 µM (SARS-CoV-2 PsVs) of 0.9%.
With Cc1cc(-c2ccc3nc(C[C@H](NC(=O)c4cc(C5(C)CC5)nn4C4CC4)C(=O)NCC#N)oc3c2)ccn1 [Compound 35, (S)—N-(1-((cyanomethyl)amino)-3-(6-(2-methylpyridin-4-yl)benzo[d]oxazol-2-yl)-1-oxopropan-2-yl)-1-cyclopropyl-3-(1-methylcyclopropyl)-1H-pyrazole-5-carboxamide] the pIC50 (human CatL; [1]) was 8.96, the activity at 0.5 µM (SARS-CoV-2 PsVs) was 40% and the activity at 5 µM (SARS-CoV-2 PsVs) was 3.1%.
Compound Cc1cc(-c2ccc3nc(C[C@H](NS(=O)(=O)c4cccc(Br)c4)C(=O)NCC#N)oc3c2)ccn1 [Compound 36, (S)-2-((3-bromophenyl)sulfonamido)-N-(cyanomethyl)-3-(6-(2-methylpyridin-4-yl)benzo[d]oxazol-2-yl)propanamide] has a pIC50 (human CatL; [1]) of 7.10, an activity at 0.5 µM (SARS-CoV-2 PsVs) of 110% and an activity at 5 µM (SARS-CoV-2 PsVs) of 125%.
For Cc1cc(-c2ccc3nc(C[C@H](NS(=O)(=O)c4cccc(Cl)c4)C(=O)NCC#N)oc3c2)ccn1 [Compound 37, (S)-2-((3-chlorophenyl)sulfonamido)-N-(cyanomethyl)-3-(6-(2-methylpyridin-4-yl)benzo[d]oxazol-2-yl)propanamide], the pIC50 (human CatL; [1]) was 6.90, the activity at 0.5 µM (SARS-CoV-2 PsVs) was 96% and the activity at 5 µM (SARS-CoV-2 PsVs) was 104%.
Compound Cc1cc(-c2ccc3nc(C[C@H](NC(=O)c4cc(C5(C)CC5)nn4C4CC4)C(=O)NC4(C#N)CC4)oc3c2)ccn1 [Compound 38, (S)—N-(1-((1-cyanocyclopropyl)amino)-3-(6-(2-methylpyridin-4-yl)benzo[d]oxazol-2-yl)-1-oxopropan-2-yl)-1-cyclopropyl-3-(1-methylcyclopropyl)-1H-pyrazole-5-carboxamide] has a pIC50 (human CatL; [1]) of 8.77, an activity at 0.5 µM (SARS-CoV-2 PsVs) of 34% and an activity at 5 µM (SARS-CoV-2 PsVs) of 1%.
With CN(C)c1ccc(-c2ccc3nc(C[C@H](NC(=O)c4cc(C5(C)CC5)nn4C4CC4)C(=O)NC4(C#N)CC4)oc3c2)cn1 [Compound 39, (2S)—N-(1-cyanocyclopropyl)-2-{[2-cyclopropyl-5-(1-methylcyclopropyl)pyrazol-3-yl]formamido}-3-{6-[6-(dimethylamino)pyridin-3-yl]-1,3-benzoxazol-2-yl}propanamide] the pIC50 (human CatL; [1]) was 8.80, the activity at 0.5 µM (SARS-CoV-2 PsVs) was 32% and the activity at 5 µM (SARS-CoV-2 PsVs) was 4%.
With CC1(c2cc(C(=O)N[C@@H](Cc3nc4ccc(C5=CCN(CC(F)F)CC5)cc4o3)C(=O)NC3(C#N)CC3)n(C3CC3)n2)CC1 [Compound 40, (S)—N-(1-((1-cyanocyclopropyl)amino)-3-(6-(1-(2,2-difluoroethyl)-1,2,3,6-tetrahydropyridin-4-yl)benzo[d]oxazol-2-yl)-1-oxopropan-2-yl)-1-cyclopropyl-3-(1-methylcyclopropyl)-1H-pyrazole-5-carboxamide] the pIC50 (human CatL; [1]) was 8.82, the activity at 0.5 µM (SARS-CoV-2 PsVs) was 57% and the activity at 5 µM (SARS-CoV-2 PsVs) was 12%.
For CC(=O)Nc1ccc(-c2ccc3nc(C[C@H](NC(=O)c4cc(C5(C)CC5)nn4C4CC4)C(=O)NC4(C#N)CC4)oc3c2)cn1 [Compound 41, (2S)—N-(1-cyanocyclopropyl)-2-{[2-cyclopropyl-5-(1-methylcyclopropyl)pyrazol-3-yl]formamido}-3-[6-(6-acetamidopyridin-3-yl)-1,3-benzoxazol-2-yl]propanamide], the pIC50 (human CatL; [1]) was 8.28, the activity at 0.5 µM (SARS-CoV-2 PsVs) was 90% and the activity at 5 µM (SARS-CoV-2 PsVs) was 57.7%.
For Cc1ccc(-c2ccc3nc(C[C@H](NC(=O)c4cc(C5(C)CC5)nn4C4CC4)C(=O)NC4(C#N)CC4)oc3c2)cn1 [Compound 42, (S)—N-(1-((1-cyanocyclopropyl)amino)-3-(6-(6-methylpyridin-3-yl)benzo[d]oxazol-2-yl)-1-oxopropan-2-yl)-1-cyclopropyl-3-(1-methylcyclopropyl)-1H-pyrazole-5-carboxamide], the pIC50 (human CatL; [1]) was 8.35, the activity at 0.5 µM (SARS-CoV-2 PsVs) was 34% and the activity at 5 µM (SARS-CoV-2 PsVs) was 5.6%.
With CCNc1ccc(-c2ccc3nc(C[C@H](NC(=O)c4cc(C5(C)CC5)nn4C4CC4)C(=O)NC4(C#N)CC4)oc3c2)cn1 [Compound 43, (S)—N-(1-((1-cyanocyclopropyl)amino)-3-(6-(6-(ethylamino)pyridin-3-yl)benzo[d]oxazol-2-yl)-1-oxopropan-2-yl)-1-cyclopropyl-3-(1-methylcyclopropyl)-1H-pyrazole-5-carboxamide] the pIC50 (human CatL; [1]) was 9.10, the activity at 0.5 µM (SARS-CoV-2 PsVs) was 18% and the activity at 5 µM (SARS-CoV-2 PsVs) was 0.8%.
For Cc1cccc(-c2ccc3nc(C[C@H](NC(=O)c4cc(C5(C)CC5)nn4C4CC4)C(=O)NC4(C#N)CC4)oc3c2)n1 [Compound 44, (S)—N-(1-((1-cyanocyclopropyl)amino)-3-(6-(6-methylpyridin-2-yl)benzo[d]oxazol-2-yl)-1-oxopropan-2-yl)-1-cyclopropyl-3-(1-methylcyclopropyl)-1H-pyrazole-5-carboxamide], the pIC50 (human CatL; [1]) was 7.78, the pIC50 (human CatL; [2]) was greater than 7.30 and the activity at 0.5 µM (SARS-CoV-2 PsVs) was 82%. For the same compound, the activity at 5 µM (SARS-CoV-2 PsVs) was 55.5%.
